Experimental data published in patent US20070112022A1, “Piperidine derivatives as ccr5 receptor modulators” (priority 2003, published 2007).

Each compound was assayed against recombinant human CCR5 receptor (Homo sapiens, UniProt P51681) (assay: in vitro radioligand binding assay: inhibition of iodinated MIP-1α binding to CCR5 membranes (scintillation proximity)). Conditions: displacement of 0.1 nM iodinated MIP-1α; membranes from Chinese hamster ovary cells expressing recombinant human CCR5; average if tested more than once.
recombinant human CCR5 receptor, sequence (P51681 whole entry): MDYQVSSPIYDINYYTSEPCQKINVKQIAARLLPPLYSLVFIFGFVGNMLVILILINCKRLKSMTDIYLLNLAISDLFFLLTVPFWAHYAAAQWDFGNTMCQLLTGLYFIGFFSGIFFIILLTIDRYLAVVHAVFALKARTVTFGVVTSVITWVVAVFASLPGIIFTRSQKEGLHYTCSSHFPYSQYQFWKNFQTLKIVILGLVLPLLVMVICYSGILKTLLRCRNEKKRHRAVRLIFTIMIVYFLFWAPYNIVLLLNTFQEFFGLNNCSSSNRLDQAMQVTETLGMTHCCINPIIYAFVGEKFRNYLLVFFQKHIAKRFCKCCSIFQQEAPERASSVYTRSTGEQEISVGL
Experimental: The ability of compounds to inhibit the binding of MIP-1α was assessed by an in vitro radioligand binding assay. Membranes were prepared from Chinese hamster ovary cells which expressed the recombinant human CCR5 receptor. These membranes were incubated with 0.1 nM iodinated MIP-1α, scintillation proximity beads and various concentrations of the compounds of the invention in 96-well plates. The amount of iodinated MIP-1α bound to the receptor was determined by scintillation counting. Competition curves were obtained for compounds and the concentration of compound which displaced 50% of bound iodinated MIP-1α was calculated (IC50).
In Table VI the results are presented as Pic50 values. A Pic50 value is the negative log (to base 10) of the IC50 result, so an IC50 of 1 μM (that is 1×10^−6M) gives a Pic50 of 6. If a compound was tested more than once then the data below is an average of the probative tests results.
CC(=O)Nc1ccc(S(=O)(=O)NCC2CCN(CC[C@@H](c3cc(F)cc(F)c3)C3CCN(S(C)(=O)=O)CC3)CC2)cc1 [Compound 4 (Table I), N-[4-({[(1-{(3R)-3-(3,5-difluorophenyl)-3-[1-(methylsulfonyl)piperidin-4-yl]propyl}piperidin-4-yl)methyl]amino}sulfonyl)phenyl]-acetamide] gave an IC50 of 7.94 nM.
With CS(=O)(=O)c1ccc([C@@H](CCN2CCC(CNS(=O)(=O)c3ccc(NS(=O)(=O)C(F)(F)F)cc3)CC2)c2cc(F)cc(F)c2)cc1 [Compound 16 (Table II), N-[(1-{(3R)-3-(3,5-difluorophenyl)-3-[4-(methylsulfonyl)phenyl]propyl}piperidin-4-yl)methyl]-4-{[(trifluoromethyl)sulfonyl]amino}-benzenesulfonamide] the IC50 was 50.1 nM.
CS(=O)(=O)c1ccc([C@@H](CCN2CCC(CNS(=O)(=O)c3ccc(-c4nnn[nH]4)cc3)CC2)c2cc(F)cc(F)c2)cc1 [Compound 19 (Table II), N-[(1-{(3R)-3-(3,5-difluorophenyl)-3-[4-(methylsulfonyl)phenyl]propyl}piperidin-4-yl)methyl]-4-(1H-tetrazol-5-yl)-benzenesulfonamide] gave an IC50 of 7.94 nM.
